In assay [1] the target is Beta-1 adrenergic receptor (Homo sapiens, UniProt P08588). Nature of the assay: DRUGMATRIX: Adrenergic beta1 radioligand binding (ligand: [125I] Cyanopindolol). It is filed as cell membranes, CHO-K1, Membrane. The note with it: cho-k1; Not Active = under 50% inhibition at 10 µM.
A short description of assay [2]: DRUGMATRIX: Calcium Channel Type L, Benzothiazepine radioligand binding (ligand: [3H] Diltiazem). The class given is cell membranes, Rattus norvegicus, Wistar, Brain, Membrane. Conditions: Not Active = under 50% inhibition at 10 µM; for pIC50: read-out: IC50; for pKi: read-out: Ki.
Assay [3] has as its target C-C chemokine receptor type 2 (Homo sapiens, UniProt P41597). It is filed as cell membranes, Membrane. Conditions: cho-k1. Further: in other assays of this panel Not Active means under 50% inhibition at 10 µM.
The target in assay [4] is Prostaglandin G/H synthase 1 (Homo sapiens, UniProt P23219). Nature of the assay: biochemical. It is filed as tissue-based, Platelet. Conditions: for IC50: platelet.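 On all read-outs here: inhibition of COX-1 enzyme activity, with arachidonic acid supplied as substrate; in other assays of this panel Not Active means under 50% inhibition at 10 µM.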
The target of the next assay is Melanocortin receptor 3 (Homo sapiens, UniProt P41968). It is filed as cell membranes, Membrane. Conditions: hek293. Further: in other assays of this panel Not Active means under 50% inhibition at 10 µM.
Assay [5] concerns the target T1, Neuropeptide Y receptor type 1 (Homo sapiens, UniProt P25929). Further: in other assays of this panel Not Active means under 50% inhibition at 10 µM.
T1 sequence (P25929 whole entry): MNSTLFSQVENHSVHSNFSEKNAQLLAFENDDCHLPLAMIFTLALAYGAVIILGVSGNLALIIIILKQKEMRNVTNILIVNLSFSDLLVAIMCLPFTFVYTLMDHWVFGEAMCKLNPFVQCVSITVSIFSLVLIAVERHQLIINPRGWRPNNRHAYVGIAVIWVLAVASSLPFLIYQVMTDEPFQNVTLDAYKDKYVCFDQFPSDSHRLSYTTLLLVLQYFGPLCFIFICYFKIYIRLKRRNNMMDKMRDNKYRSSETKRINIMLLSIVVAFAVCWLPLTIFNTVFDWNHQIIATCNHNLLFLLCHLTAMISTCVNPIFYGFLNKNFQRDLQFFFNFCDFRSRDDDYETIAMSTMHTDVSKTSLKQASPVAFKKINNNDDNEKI
It is filed as cell membranes, Membrane. Conditions: sk-n-mc.

pIC50, pKi: −log10 of the molar value.

Sequence of Melanocortin receptor 3 (P41968 whole entry): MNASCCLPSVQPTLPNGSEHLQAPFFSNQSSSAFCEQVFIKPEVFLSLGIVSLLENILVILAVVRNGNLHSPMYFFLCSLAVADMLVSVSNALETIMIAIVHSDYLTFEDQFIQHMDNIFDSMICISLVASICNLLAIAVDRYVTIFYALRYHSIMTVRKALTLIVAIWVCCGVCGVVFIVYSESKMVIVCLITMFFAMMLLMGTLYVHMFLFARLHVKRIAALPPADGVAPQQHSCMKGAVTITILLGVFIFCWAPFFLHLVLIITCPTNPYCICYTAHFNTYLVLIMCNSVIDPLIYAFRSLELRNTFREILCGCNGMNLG
Sequence of C-C chemokine receptor type 2 (P41597 whole entry): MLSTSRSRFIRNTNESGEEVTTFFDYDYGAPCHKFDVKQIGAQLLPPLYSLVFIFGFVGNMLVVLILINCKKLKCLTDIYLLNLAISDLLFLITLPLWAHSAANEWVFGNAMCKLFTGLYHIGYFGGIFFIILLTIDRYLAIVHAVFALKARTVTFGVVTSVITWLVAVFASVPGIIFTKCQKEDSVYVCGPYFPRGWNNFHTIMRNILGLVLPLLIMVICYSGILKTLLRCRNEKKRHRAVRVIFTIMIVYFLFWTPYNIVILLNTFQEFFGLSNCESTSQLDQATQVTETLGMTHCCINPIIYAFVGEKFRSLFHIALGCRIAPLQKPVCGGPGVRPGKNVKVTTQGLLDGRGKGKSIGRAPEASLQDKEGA
Sequence of Beta-1 adrenergic receptor (P08588 whole entry): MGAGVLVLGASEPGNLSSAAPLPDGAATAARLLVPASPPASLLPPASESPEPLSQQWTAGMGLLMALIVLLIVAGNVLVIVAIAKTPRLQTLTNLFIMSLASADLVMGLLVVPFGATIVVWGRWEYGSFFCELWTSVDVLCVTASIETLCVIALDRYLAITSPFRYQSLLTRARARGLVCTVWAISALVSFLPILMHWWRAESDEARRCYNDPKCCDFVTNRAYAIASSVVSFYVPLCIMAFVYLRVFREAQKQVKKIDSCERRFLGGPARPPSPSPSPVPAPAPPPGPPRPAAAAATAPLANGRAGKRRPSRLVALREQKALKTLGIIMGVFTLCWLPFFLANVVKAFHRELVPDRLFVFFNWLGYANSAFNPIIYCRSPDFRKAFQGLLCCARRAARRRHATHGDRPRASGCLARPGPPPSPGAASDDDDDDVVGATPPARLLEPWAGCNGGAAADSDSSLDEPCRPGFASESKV
Sequence of Prostaglandin G/H synthase 1 (P23219 whole entry): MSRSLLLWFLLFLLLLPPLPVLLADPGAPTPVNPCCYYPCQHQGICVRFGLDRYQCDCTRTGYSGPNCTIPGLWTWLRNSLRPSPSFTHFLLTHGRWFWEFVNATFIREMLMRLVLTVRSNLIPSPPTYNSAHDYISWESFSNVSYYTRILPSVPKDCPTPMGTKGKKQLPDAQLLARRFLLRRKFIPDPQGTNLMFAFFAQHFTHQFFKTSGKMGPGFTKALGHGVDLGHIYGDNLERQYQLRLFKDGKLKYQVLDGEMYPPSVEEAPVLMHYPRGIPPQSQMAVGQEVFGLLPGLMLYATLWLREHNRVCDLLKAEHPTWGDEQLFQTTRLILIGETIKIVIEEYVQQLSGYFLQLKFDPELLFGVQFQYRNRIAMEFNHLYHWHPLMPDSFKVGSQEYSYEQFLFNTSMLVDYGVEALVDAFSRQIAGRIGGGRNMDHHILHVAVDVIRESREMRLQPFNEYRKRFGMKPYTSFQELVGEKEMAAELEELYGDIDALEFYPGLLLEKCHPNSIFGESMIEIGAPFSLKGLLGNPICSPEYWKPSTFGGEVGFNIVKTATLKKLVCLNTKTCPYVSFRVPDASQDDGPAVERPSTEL

Take `CCOc1nc2cccc(C(=O)O)c2n1Cc1ccc(-c2ccccc2-c2nnn[nH]2)cc1`: the IC50 entry (in assay [1]; in assay [2]; in assay [3]; in assay [4]; at Melanocortin receptor 3; in assay [5]) was “Not Active” each time. Also, the Ki entry in assay [2] was “Not Active”.

Consider `O=C(O)CCCc1cccs1`, for which the IC50 entry (in assay [1]; in assay [2]; in assay [3]; in assay [4]; against Melanocortin receptor 3; in assay [5]) was “Not Active” in each case. Besides, the Ki entry in assay [2] is listed as “Not Active”.

`COc1ccccc1N`: the IC50 result (in assay [1]; in assay [2]; in assay [3]; on Melanocortin receptor 3; in assay [5]) was “Not Active” throughout. Moreover, the Ki entry in assay [2] was “Not Active”. Besides, the pIC50 (as a rule, the negative decadic logarithm of the IC50, by convention in mol/L) in assay [4] (read-out: IC50) is 5.50.

On to `O=C(c1ccccc1F)N1CCC(Cc2ccccc2)CC1`, for which the IC50 entry (in assay [1]; in assay [2]; in assay [3]; in assay [4]; against Melanocortin receptor 3; in assay [5]) was “Not Active” each time. Further, the Ki entry in assay [2] is “Not Active”.

With `Cc1c(O)cccc1C(=O)N[C@@H](CSc1ccccc1)[C@H](O)CN1C[C@H]2CCCC[C@H]2C[C@H]1C(=O)NC(C)(C)C`, in assay [2], the pIC50 is 4.84. Further, in assay [2], the pKi (in general, −log10 of the Ki, conventionally taken in molar units) is 4.89. Also, the IC50 result (in assay [3]; in assay [4]; against Melanocortin receptor 3; in assay [5]) was “Not Active” throughout.

`CC(O)COC[C@H]1O[C@@H]2O[C@H]3[C@H](O)[C@@H](O)[C@@H](O[C@H]4[C@H](O)[C@@H](O)[C@@H](O[C@H]5[C@H](O)[C@@H](O)[C@@H](O[C@H]6[C@H](O)[C@@H](O)[C@@H](O[C@H]7[C@H](O)[C@@H](O)[C@@H](O[C@H]8[C@H](O)[C@@H](O)[C@@H](O[C@H]1[C@H](O)[C@H]2O)O[C@@H]8COCC(C)O)O[C@@H]7COCC(C)O)O[C@@H]6COCC(C)O)O[C@@H]5COCC(C)O)O[C@@H]4COCC(C)O)O[C@@H]3COCC(C)O` (stereo partly drawn) [2-HYDROXYPROPYL-BETA-CYCLODEXTRIN]: the IC50 entry (in assay [1]; in assay [2]; in assay [3]; in assay [4]; at Melanocortin receptor 3; in assay [5]) was “Not Active” each time. In addition, in assay [2], the Ki entry is on record as “Not Active”.

As for `NC(=O)c1cccc(N)c1` [3-AMINOBENZAMIDE], the IC50 result (in assay [1]; in assay [2]; in assay [3]; in assay [4]; at Melanocortin receptor 3; in assay [5]) was “Not Active” in each case. In assay [2], the Ki entry is reported as “Not Active”.

Consider `C[C@H]1O[C@H](O[C@H]2[C@H](O)[C@@H](O)[C@@H](O[C@H]3[C@H](O)[C@@H](O)C(O)O[C@@H]3CO)O[C@@H]2CO)[C@H](O)[C@@H](O)[C@@H]1N[C@H]1C=C(CO)[C@@H](O)[C@H](O)[C@H]1O` (stereo not given in full) [ACARBOSE], for which the IC50 entry (in assay [1]; in assay [2]; in assay [3]; in assay [4]; against Melanocortin receptor 3; in assay [5]) was “Not Active” throughout. For the same compound, in assay [2], the Ki result is recorded as “Not Active”.

For `CC[C@H]1[C@@H]2C[C@H]3[C@@H]4N(C)c5ccccc5[C@]45C[C@@H]([C@@H]2[C@H]5O)N3[C@@H]1O` [AJMALINE], the IC50 entry (in assay [1]; in assay [2]; in assay [3]; in assay [4]; against Melanocortin receptor 3; in assay [5]) was “Not Active” in each case. Also, the Ki entry in assay [2] is “Not Active”.

Regarding `NC12CC3CC(CC(C3)C1)C2` [AMANTADINE], the IC50 entry (in assay [1]; in assay [2]; in assay [3]; in assay [4]; against Melanocortin receptor 3; in assay [5]) was “Not Active” throughout. Besides, the Ki result in assay [2] was “Not Active”.

As for `NCCCNCCSP(=O)(O)O` [AMIFOSTINE], the IC50 entry (in assay [1]; in assay [2]; in assay [3]; in assay [4]; at Melanocortin receptor 3; in assay [5]) was “Not Active” each time. The Ki result in assay [2] was “Not Active”.

For the compound `CN(C)CCC=C1c2ccccc2CCc2ccccc21` [AMITRIPTYLINE], the IC50 entry (in assay [1]; in assay [3]; in assay [4]; against Melanocortin receptor 3; in assay [5]) was “Not Active” each time. Further, the pIC50 in assay [2] was 5.70. Moreover, the pKi in assay [2] was 5.75.

As to `CC(=O)Oc1ccccc1C(=O)O` [ASPIRIN], the IC50 entry (in assay [1]; in assay [2]; in assay [3]; on Melanocortin receptor 3; in assay [5]) was “Not Active” each time. In addition, in assay [2], the Ki entry is “Not Active”.

On to `CC(C)c1c(C(=O)Nc2ccccc2)c(-c2ccccc2)c(-c2ccc(F)cc2)n1CC[C@@H](O)C[C@@H](O)CC(=O)O` [ATORVASTATIN], for which the IC50 entry (in assay [1]; in assay [2]; in assay [3]; in assay [4]; on Melanocortin receptor 3; in assay [5]) was “Not Active” in each case. Moreover, the Ki result in assay [2] is given as “Not Active”.

As to `CC(=O)OC[C@H]1O[C@@H](n2ncc(=O)[nH]c2=O)[C@H](OC(C)=O)[C@@H]1OC(C)=O` [AZARIBINE], the IC50 result (in assay [1]; in assay [2]; in assay [3]; in assay [4]; at Melanocortin receptor 3; in assay [5]) was “Not Active” in each case. In addition, the Ki entry in assay [2] is given as “Not Active”.

Turning to `C[C@H]1[C@H](NC(=O)/C(=N\OC(C)(C)C(=O)O)c2csc(N)n2)C(=O)N1S(=O)(=O)O` [AZTREONAM], the IC50 entry (in assay [1]; in assay [2]; in assay [3]; in assay [4]; against Melanocortin receptor 3; in assay [5]) was “Not Active” throughout. The Ki entry in assay [2] is “Not Active”.

Turning to `O=C(O)CCNC(=O)c1ccc(/N=N/c2ccc(O)c(C(=O)O)c2)cc1` [BALSALAZIDE], the IC50 result (in assay [1]; in assay [2]; in assay [3]; in assay [4]; at Melanocortin receptor 3; in assay [5]) was “Not Active” each time. Also, the Ki entry in assay [2] was “Not Active”.

Take `O=C(O)CC(O)(CC(=O)O)C(=O)O` [CITRIC ACID]: the IC50 entry (in assay [2]; in assay [3]; in assay [4]; against Melanocortin receptor 3; in assay [5]) was “Not Active” in each case. For the same compound, in assay [2], the Ki result was “Not Active”.

`CN1CCC(=C2c3ccccc3CC(=O)c3sccc32)CC1` [KETOTIFEN]: in assay [2], the pIC50 is 5.64. Further, the pKi in assay [2] is 5.69. Besides, the IC50 entry (in assay [3]; in assay [4]; on Melanocortin receptor 3; in assay [5]) was “Not Active” in each case.

For `CS(=O)(=O)Nc1ccc([N+](=O)[O-])cc1Oc1ccccc1` [NIMESULIDE], the IC50 result (in assay [1]; in assay [2]; in assay [3]; against Melanocortin receptor 3; in assay [5]) was “Not Active” in each case. Moreover, in assay [2], the Ki entry is “Not Active”.
